Results: ChEMBL document CHEMBL3774343, “Discovery of CREBBP Bromodomain Inhibitors by High-Throughput Docking and Hit Optimization Guided by Molecular Dynamics” (J Med Chem, 2016)
pIC50, pKd: −log10 of the molar value. Peptide text beside a SMILES is read from it.

Tests used:
[1] = molecular target: T1, CREB-binding protein (Homo sapiens, UniProt Q92793); test: Binding affinity to N-terminal GST-tagged recombinant human CREBBP expressed in Escherichia coli after 2 hrs using BET bromodomain ligand by TR-FRET assay
Target sequence in this assay (Q92793 whole entry): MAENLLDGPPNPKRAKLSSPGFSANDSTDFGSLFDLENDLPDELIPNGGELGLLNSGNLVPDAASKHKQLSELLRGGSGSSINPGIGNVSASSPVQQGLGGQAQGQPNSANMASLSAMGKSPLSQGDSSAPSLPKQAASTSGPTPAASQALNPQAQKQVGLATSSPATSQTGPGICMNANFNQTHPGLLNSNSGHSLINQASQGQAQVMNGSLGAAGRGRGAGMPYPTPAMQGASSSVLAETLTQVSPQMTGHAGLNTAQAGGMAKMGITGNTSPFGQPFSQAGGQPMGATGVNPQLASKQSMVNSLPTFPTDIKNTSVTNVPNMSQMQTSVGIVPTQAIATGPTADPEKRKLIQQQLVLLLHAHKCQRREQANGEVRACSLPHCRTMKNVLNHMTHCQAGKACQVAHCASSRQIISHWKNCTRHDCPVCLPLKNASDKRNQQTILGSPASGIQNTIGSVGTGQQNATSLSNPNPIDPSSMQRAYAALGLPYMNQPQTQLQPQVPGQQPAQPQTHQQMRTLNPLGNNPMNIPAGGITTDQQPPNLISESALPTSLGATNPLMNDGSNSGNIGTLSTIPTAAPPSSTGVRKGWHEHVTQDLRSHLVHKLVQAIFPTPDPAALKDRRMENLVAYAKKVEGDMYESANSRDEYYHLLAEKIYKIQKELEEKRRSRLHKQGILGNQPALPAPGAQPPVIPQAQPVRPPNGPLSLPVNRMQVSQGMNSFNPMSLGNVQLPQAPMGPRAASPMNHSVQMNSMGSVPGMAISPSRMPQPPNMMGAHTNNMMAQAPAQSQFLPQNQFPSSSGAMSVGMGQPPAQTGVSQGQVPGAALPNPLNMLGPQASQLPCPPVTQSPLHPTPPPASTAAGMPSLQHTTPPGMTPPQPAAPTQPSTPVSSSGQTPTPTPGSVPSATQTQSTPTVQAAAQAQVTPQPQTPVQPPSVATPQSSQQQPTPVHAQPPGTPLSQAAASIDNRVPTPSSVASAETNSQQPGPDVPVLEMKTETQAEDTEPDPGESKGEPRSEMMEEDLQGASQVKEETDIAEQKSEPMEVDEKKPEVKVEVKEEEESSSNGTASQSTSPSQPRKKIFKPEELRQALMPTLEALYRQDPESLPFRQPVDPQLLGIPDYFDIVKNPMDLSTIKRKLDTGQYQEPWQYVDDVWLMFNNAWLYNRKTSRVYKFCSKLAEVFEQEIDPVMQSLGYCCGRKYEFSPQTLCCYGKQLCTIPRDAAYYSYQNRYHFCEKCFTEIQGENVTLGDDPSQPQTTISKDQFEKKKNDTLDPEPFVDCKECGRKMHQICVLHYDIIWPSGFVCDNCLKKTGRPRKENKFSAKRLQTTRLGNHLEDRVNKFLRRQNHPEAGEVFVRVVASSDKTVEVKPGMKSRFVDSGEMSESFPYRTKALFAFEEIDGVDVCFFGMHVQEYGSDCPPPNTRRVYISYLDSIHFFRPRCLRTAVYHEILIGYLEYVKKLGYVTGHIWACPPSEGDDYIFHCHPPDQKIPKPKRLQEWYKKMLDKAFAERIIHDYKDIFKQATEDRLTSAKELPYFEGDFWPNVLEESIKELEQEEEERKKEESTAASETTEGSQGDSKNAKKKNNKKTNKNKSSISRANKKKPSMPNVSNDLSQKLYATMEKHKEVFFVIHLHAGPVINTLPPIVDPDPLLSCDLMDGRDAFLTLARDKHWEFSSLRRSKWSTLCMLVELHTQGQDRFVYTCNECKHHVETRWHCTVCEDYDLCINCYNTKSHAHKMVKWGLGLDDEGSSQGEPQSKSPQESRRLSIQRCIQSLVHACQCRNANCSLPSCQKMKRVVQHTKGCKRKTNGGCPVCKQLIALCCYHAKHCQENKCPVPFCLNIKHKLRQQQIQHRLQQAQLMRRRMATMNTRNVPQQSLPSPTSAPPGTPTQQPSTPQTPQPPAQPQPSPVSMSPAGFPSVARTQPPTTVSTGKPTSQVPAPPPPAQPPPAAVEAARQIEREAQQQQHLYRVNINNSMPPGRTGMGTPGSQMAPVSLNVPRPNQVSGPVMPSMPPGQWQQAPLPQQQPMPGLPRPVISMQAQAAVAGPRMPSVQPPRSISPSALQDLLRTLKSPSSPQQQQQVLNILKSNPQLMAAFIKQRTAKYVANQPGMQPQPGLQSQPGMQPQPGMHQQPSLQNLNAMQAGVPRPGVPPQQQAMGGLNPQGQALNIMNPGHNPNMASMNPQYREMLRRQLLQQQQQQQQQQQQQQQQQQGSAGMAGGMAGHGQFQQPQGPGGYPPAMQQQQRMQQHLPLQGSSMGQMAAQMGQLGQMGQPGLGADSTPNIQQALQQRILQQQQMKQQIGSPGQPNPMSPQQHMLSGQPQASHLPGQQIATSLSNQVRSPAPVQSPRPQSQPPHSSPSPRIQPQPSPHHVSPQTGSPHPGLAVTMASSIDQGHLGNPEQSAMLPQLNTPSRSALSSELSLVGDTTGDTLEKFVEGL

[2] = molecular target: T1, CREB-binding protein; test: Binding affinity to human CREBBP at 100 uM by thermal shift assay
Target sequence in this assay (Q92793 2-2442 limits assumed): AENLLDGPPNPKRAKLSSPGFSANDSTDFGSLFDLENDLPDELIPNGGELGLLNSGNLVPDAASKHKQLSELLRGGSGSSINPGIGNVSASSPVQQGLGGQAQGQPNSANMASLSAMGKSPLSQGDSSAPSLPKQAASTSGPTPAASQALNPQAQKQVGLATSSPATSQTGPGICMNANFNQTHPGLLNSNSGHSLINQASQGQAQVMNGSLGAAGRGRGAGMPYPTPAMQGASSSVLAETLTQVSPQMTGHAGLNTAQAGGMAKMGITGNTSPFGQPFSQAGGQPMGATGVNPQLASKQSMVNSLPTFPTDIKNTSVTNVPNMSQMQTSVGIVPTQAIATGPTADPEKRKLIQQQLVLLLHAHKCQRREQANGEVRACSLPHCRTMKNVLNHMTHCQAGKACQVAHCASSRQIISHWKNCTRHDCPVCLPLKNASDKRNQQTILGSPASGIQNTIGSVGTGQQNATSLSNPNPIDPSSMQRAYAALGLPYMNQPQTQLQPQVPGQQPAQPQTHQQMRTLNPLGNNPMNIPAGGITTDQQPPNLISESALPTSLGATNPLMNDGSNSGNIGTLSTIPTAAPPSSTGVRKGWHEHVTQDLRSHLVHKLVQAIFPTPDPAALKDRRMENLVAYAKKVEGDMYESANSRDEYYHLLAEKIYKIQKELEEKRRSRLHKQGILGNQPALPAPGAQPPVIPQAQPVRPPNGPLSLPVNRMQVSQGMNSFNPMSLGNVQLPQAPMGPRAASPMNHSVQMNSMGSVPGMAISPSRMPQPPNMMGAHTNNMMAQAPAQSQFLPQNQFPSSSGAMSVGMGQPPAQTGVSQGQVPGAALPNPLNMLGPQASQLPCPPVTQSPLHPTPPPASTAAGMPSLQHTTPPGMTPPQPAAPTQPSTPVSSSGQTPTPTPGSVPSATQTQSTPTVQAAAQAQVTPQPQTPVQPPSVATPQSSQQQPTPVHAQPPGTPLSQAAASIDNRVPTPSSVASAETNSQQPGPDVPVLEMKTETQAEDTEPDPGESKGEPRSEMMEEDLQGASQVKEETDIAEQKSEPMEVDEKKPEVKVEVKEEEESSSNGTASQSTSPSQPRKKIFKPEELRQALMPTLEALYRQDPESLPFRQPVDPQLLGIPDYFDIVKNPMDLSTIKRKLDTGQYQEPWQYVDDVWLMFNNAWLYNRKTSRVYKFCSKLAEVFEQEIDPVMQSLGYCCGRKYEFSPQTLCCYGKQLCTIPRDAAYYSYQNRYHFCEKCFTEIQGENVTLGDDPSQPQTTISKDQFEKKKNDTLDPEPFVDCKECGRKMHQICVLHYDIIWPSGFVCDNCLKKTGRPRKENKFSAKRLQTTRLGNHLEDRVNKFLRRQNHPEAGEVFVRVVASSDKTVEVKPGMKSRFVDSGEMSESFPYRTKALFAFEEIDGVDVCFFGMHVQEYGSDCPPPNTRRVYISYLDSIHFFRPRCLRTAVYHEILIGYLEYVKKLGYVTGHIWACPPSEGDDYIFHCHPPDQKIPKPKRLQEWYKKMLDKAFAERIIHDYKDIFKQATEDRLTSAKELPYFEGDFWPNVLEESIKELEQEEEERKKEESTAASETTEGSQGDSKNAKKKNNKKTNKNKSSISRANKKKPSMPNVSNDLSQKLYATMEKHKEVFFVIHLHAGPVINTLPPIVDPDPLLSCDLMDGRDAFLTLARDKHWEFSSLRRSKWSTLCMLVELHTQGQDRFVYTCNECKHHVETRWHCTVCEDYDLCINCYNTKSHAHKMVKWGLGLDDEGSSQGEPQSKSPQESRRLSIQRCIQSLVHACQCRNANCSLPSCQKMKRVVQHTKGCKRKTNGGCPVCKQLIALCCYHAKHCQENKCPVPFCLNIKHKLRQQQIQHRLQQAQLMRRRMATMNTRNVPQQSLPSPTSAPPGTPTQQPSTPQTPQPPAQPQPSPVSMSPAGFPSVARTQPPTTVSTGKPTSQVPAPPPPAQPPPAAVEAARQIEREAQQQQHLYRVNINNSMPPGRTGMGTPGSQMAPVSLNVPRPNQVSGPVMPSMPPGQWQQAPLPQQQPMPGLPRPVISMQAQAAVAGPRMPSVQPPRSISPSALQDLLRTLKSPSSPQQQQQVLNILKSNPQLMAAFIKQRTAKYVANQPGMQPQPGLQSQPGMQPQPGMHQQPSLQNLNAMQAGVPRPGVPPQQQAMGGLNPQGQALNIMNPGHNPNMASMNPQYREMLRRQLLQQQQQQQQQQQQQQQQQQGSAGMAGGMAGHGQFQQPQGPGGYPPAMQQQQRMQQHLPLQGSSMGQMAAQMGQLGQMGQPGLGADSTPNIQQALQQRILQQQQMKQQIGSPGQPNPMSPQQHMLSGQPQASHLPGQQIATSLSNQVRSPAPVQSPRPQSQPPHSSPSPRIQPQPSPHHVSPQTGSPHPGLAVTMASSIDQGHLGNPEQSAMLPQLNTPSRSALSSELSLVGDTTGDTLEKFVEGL

[3] = molecular target: T1, CREB-binding protein; test: Competitive binding affinity to partial length human CREBBP expressed in Escherichia coli BL21 after 1 hr by BROMOscan assay
Target sequence in this assay (Q92793 whole entry): as the sequence (Q92793 whole entry) above

[4] = molecular target: T1, CREB-binding protein; test: Competitive binding affinity to partial length human CREBBP expressed in Escherichia coli BL21 at 50 uM after 1 hr by BROMOscan assay relative to control
Target sequence in this assay (Q92793 2-2442 limits assumed): as the sequence (Q92793 2-2442 limits assumed) above

[5] = species: Homo sapiens; test: Selectivity ratio of Kd for BRD4 bromodomain 1 (unknown origin) to Kd for partial length human CREBBP expressed in Escherichia coli BL21
[6] = molecular target: T1, CREB-binding protein; test: Binding affinity to CREBBP (unknown origin) by fluorescence polarization assay
Target sequence in this assay (Q92793 whole entry): as the sequence (Q92793 whole entry) above

pIC50 [1]	ΔTm [2]	Activity [4]	SMILES	further results
–	1.3 °C	5%	CCn1cnnc1CNC(=O)c1[nH]c(C)c(C(C)=O)c1C	–
< 4.00	0.3 °C	9%	CC(=O)c1c(C)[nH]c(C(=O)Nc2cc(-c3nnco3)ccc2C)c1C	pKd [3]: 4.89

The next lines start with the compound.

SMILES	pIC50 [1]	ΔTm [2]	Activity [4]	further results
CC(=O)c1c(C)[nH]c(C(=O)Nc2cccc(C(=O)O)c2)c1C	5.82	2.3 °C	–	pKd [3]: 5.38
CC(=O)c1c(C)[nH]c(C(=O)Nc2cc(C(=O)O)ccc2C)c1C	< 5.00	1.4 °C	–	–
CCCc1c(C(=O)NCc2c(C)cc(C)[nH]c2=O)[nH]c(C)c1C(C)=O	–	0.3 °C	3%	–
COC(=O)c1ccc(C)c(NC(=O)c2[nH]c(C)c(C(C)=O)c2C)c1	–	–	20%	–
CCOc1ccc(C(C)=O)cc1NC(=O)c1cccc(C(=O)O)c1	–	–	–	Ratio [5]: > 65
CC(=O)NCCCC[C@@H]1NC(=O)[C@H](CCCCN)NC(=O)[C@H](Cc2c[nH]c3ccccc23)NC(=O)[C@@H](NC(C)=O)CSSC[C@@H](C(=O)N[C@@H](Cc2ccccc2)C(=O)N[C@@H](CCCCN)C(N)=O)NC(=O)[C@H](CC(C)C)NC1=O (HELM PEPTIDE1{[ac].C.W.K.K.L.C.F.K.[am]}|PEPTIDE2{[ac]}$PEPTIDE1,PEPTIDE2,5:R3-1:R2|PEPTIDE1,PEPTIDE1,2:R3-7:R3$$$V2.0)	–	–	–	pIC50 [6]: 5.30
